For test [1], the system named is S. cerevisiae MEP2-GFP strain, flow cytometry fluorescence, 3 h. Kind of test: modulators of MEP2-GFP levels in yeast, dose response, S. cerevisiae, flow cytometry GFP, MLPCN hits (AID 2742).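 On EC50: curve fit on GFP signal minus compound signal in parental s288c strain lacking GFP.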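 On GFP fluorescence (kMESF), higher = increase: GFP tag reports level of MEP2 protein as a downstream target of TOR signalling.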
Test in test [2]: as above
To be noted: S. cerevisiae MEP2-GFP strain, flow cytometry fluorescence, 3 h; at 33 µM (top of the series).

Activity calls are given as the source filed them.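 How the source made its calls: active means fitted half-maximal concentration for changing background-corrected GFP signal at or below a set limit; inactive means the rest.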

Take `O=C1NC(=O)C(=Cc2ccc(-c3ccc(Cl)cc3)o2)C(=O)N1`: the concentration giving a half-maximal response (EC50) in test [1] is 1.38 µM.

In the case of `Cc1ccc(/C=C/C(=O)c2ccccc(=O)c2O)c(C)c1`, in test [1], the 50% effective concentration (EC50) was 13.7 µM. As to `CC1(C)C[C@H]2C=C(C=O)[C@]3(C=O)C[C@]3(C)[C@H]2C1`, the EC50 in test [1] is 1.26 µM.

For `CNc1nc(N)c([N+](=O)[O-])c(Nc2cccc(F)c2)n1`, the EC50 in test [1] is 6.85 µM. For `CCOC(=O)COc1ccc2ccccc2c1/C=C/[N+](=O)[O-]`, the 50% effective concentration (EC50) in test [1] was 12.7 µM. The same measure, in the same setting: under `O=C(Oc1ccnc2cc(Cl)ccc12)N1CCCCCC1` stands 3.86 µM. Consider `COC(=O)CCS(=O)(=O)c1nc(-c2ccccc2)cc(C(F)(F)F)n1`, for which the GFP fluorescence (kMESF), higher = increase in test [2] was 6.95 kMESF (inactive). Consider `O=C1NC(=S)NC(=O)C1=Cc1ccc2c(c1)CCN2CCCCl`, for which the GFP fluorescence (kMESF), higher = increase in test [2] is 4.18 kMESF (inactive). For the molecule `COc1ccc(N/N=C(\C#N)C(N)=O)cc1`, the GFP fluorescence (kMESF), higher = increase in test [2] is 1.24 kMESF (inactive). In the case of `CCCc1cc(=O)oc2cc(C)cc(OCC(=O)NC3CC3)c12`, the GFP fluorescence (kMESF), higher = increase in test [2] is 1.67 kMESF (inactive). In the case of `Cc1ccc(NC(=O)ON=C2CCCC2)cc1`, in test [2], the GFP fluorescence (kMESF), higher = increase was 3.26 kMESF (inactive). Same read-out and setting: under `CCOc1ccc(C(Nc2cccnc2)c2cc(Cl)c3cccnc3c2O)cc1` (configuration not stated) stands 4.24 kMESF (inactive); under `COc1ccc(C(=O)/C=C2/C(=O)Nc3ccccc32)cc1`, 4.25 kMESF (inactive). For `CC(C)C(=O)NC(c1cccs1)c1cc([N+](=O)[O-])c2cccnc2c1O` (configuration not stated), the GFP fluorescence (kMESF), higher = increase in test [2] was 3.41 kMESF (inactive). In the case of `CCN(CC(=O)Nc1cc(S(=O)(=O)N2CCOCC2)ccc1Cl)Cc1ccccc1`, the GFP fluorescence (kMESF), higher = increase in test [2] was 2.25 kMESF (inactive). Turning to `Cc1ccc(/C=C2\SC(=S)N(Cc3ccccc3)C2=O)o1`, in test [2], the GFP fluorescence (kMESF), higher = increase was 9.98 kMESF (inactive).

As to `CN(C)c1ccc(N=Cc2nc(-c3ccccc3)oc2OC(=O)c2ccccc2)cc1`, in test [2], the GFP fluorescence (kMESF), higher = increase was 3.17 kMESF (inactive). With `CC[C@]1(c2ccccc2C)ON(c2ccccc2C(F)(F)F)C1=O`, the GFP fluorescence (kMESF), higher = increase in test [2] is 1.97 kMESF (inactive).

As to `O=C(Oc1oc(-c2ccco2)nc1C=Nc1ccc(Cl)cc1)c1ccco1`, the GFP fluorescence (kMESF), higher = increase in test [2] was 3.6 kMESF (inactive). Turning to `CC(C)[C@@]1(c2ccc(Cl)cc2)ON(c2ccccc2C(F)(F)F)C1=O`, the GFP fluorescence (kMESF), higher = increase in test [2] is 2.87 kMESF (inactive). On to `COc1ccc(OCC(=O)NNC(=S)NC(=O)C2CCCCC2)cc1`, for which, in test [2], the GFP fluorescence (kMESF), higher = increase was 3.25 kMESF (inactive). Regarding `Cc1c(NC2=C(Cl)C(=O)N(c3ccccc3Cl)C2=O)c(=O)n(-c2ccccc2)n1C`, the GFP fluorescence (kMESF), higher = increase in test [2] was 1.97 kMESF (inactive). In the case of `Nc1c(C(=O)c2cccs2)sc2nsc(SCCN3CCCCC3)c12`, in test [2], the GFP fluorescence (kMESF), higher = increase was 15.6 kMESF (inactive). Same read-out and setting: for `N/C(Cc1ccc(Cl)cc1Cl)=N\OC(=O)c1cccs1` the value was 4.76 kMESF (inactive). The same measure, in the same setting: for `O=C(Oc1c(Cl)cc(Cl)c2cccnc12)c1cccc([N+](=O)[O-])c1` the value was 4.13 kMESF (inactive); for `CCOc1ccc(NC2=C(Cl)C(=O)N(Cc3ccccc3)C2=O)cc1`, 3.61 kMESF (inactive); for `Cc1[nH][nH]c(=O)c1C(c1ccc(-c2ccc(Cl)c(Cl)c2)o1)c1c(C)[nH][nH]c1=O`, 4.42 kMESF (inactive). Turning to `CCn1c(/C=C/c2ccc([N+](=O)[O-])o2)nc2ccccc2c1=O`, the GFP fluorescence (kMESF), higher = increase in test [2] was 2.26 kMESF (inactive).

As for `Cc1ccc2[nH]c(C)c(/C=C/c3cc[n+](C)cc3)c2c1`, the GFP fluorescence (kMESF), higher = increase in test [2] was 4.54 kMESF (inactive). Take `CC(Oc1cc2oc(=O)c3c(c2cc1Cl)CCC3)C(=O)NCCN1CCOCC1` (configuration not stated): in test [2], the GFP fluorescence (kMESF), higher = increase is 2.37 kMESF (inactive).

As for `O=c1c(-c2ccc(Cl)cc2)[n+]([O-])c2ccccc2n1O`, in test [2], the GFP fluorescence (kMESF), higher = increase is 24.9 kMESF (inactive). On to `CCCc1cc(N2CCN(c3ccccn3)CC2)n2nc(C)c(-c3ccccc3)c2n1`, for which the GFP fluorescence (kMESF), higher = increase in test [2] is 3.11 kMESF (inactive). For `CC(Oc1cccc(Cl)c1)C(=O)Nc1nc(-c2ccccn2)cs1` (configuration not stated), the GFP fluorescence (kMESF), higher = increase in test [2] is 5.7 kMESF (inactive). In the case of `Cc1cc(C)c(OCC(=O)Nc2nc(-c3ccccn3)cs2)c(C)c1`, the GFP fluorescence (kMESF), higher = increase in test [2] was 2.37 kMESF (inactive).

Consider `O=C1C(Cl)=C(Nc2ccccc2O)C(=O)N1CCc1ccccc1`, for which, in test [2], the GFP fluorescence (kMESF), higher = increase is 3.11 kMESF (inactive).

Regarding `Cc1ccc(NC(=O)c2cc(N3C(=O)C=CC3=O)ccc2N2CCOCC2)cc1Cl`, the GFP fluorescence (kMESF), higher = increase in test [2] was 1.96 kMESF (inactive). For `CC(=O)Oc1ccc(/C=c2\sc3ncnn3c2=O)cc1`, the GFP fluorescence (kMESF), higher = increase in test [2] was 3.91 kMESF (inactive). `COc1cccc2cc(-c3nc4ccccc4o3)c(=O)oc12`: in test [2], the GFP fluorescence (kMESF), higher = increase was 1.66 kMESF (inactive). As for `CCc1ccc2c(c1)/C(=C/C(=O)c1cccs1)C(=O)N2`, the GFP fluorescence (kMESF), higher = increase in test [2] is 3.95 kMESF (inactive). In the case of `Oc1c(I)cc(Cl)c2cccnc12`, in test [2], the GFP fluorescence (kMESF), higher = increase was 5.67 kMESF (inactive). Regarding `O=c1oc(/C=C/c2ccc([N+](=O)[O-])s2)nc2ccccc12`, the GFP fluorescence (kMESF), higher = increase in test [2] is 5.31 kMESF (inactive). As for `O=C(COc1ccccc1)NNC(=S)NC(=O)c1ccccc1`, the GFP fluorescence (kMESF), higher = increase in test [2] is 2.59 kMESF (inactive). Take `Cc1[nH]c2ccccc2c1C(=O)COC(=O)c1ccc([N+](=O)[O-])s1`: in test [2], the GFP fluorescence (kMESF), higher = increase is 0.4 kMESF (inactive).

In the case of `O=C(/C=C/c1ccc(Cl)c([N+](=O)[O-])c1)c1cccnc1`, the GFP fluorescence (kMESF), higher = increase in test [2] was 3.17 kMESF (inactive).

For `N/C(Cc1ccc(Cl)cc1)=N\OC(=O)c1cccc2ccccc12`, in test [2], the GFP fluorescence (kMESF), higher = increase was 3.73 kMESF (inactive).

In the case of `CS(=O)(=O)c1nc(-c2cccs2)cc(C(F)(F)F)n1`, the GFP fluorescence (kMESF), higher = increase in test [2] was 6.41 kMESF (inactive). `N/C(=N\OC(=O)c1cccc(Br)c1)c1ccccc1`: in test [2], the GFP fluorescence (kMESF), higher = increase was 2.6 kMESF (inactive). On to `COc1ccc(CCNC2=C(Cl)C(=O)N(CCc3ccccc3)C2=O)cc1OC`, for which the GFP fluorescence (kMESF), higher = increase in test [2] is 2.6 kMESF (inactive). As to `CC(=O)Oc1cccc(N2C(=O)c3cccc4c([N+](=O)[O-])ccc(c34)C2=O)c1`, in test [2], the GFP fluorescence (kMESF), higher = increase is 7.84 kMESF (inactive). As for `CC(=O)Oc1oc(-c2ccccc2)nc1C=Nc1ccc(N(C)C)cc1`, the GFP fluorescence (kMESF), higher = increase in test [2] is 3.44 kMESF (inactive). Same read-out and setting: for `CC1(C)OC(c2ccccc2)=C/C(=C/C=C2C(=O)NC(=S)NC2=O)O1` the value was 2.7 kMESF (inactive). Take `CC(=O)OC[C@]12CC[C@H]3[C@@](C)(CC[C@H]4C(C)(C)CCC[C@]34C)[C@@H]1C[C@H](C1=CC(=O)O[C@@H]1OC(C)=O)O2`: the GFP fluorescence (kMESF), higher = increase in test [2] is 1.79 kMESF (inactive). Same read-out and setting: for `CC(C)(C)c1cc(C(c2cccnc2)N2CCN(CCO)CC2)cc(C(C)(C)C)c1O` (configuration not stated) the value was -4.66 kMESF (inactive). For `Cc1ccc(C(=O)Oc2oc(-c3ccco3)nc2C=Nc2ccc(Cl)cc2)cc1`, the GFP fluorescence (kMESF), higher = increase in test [2] is 3.92 kMESF (inactive). For `COc1ccc2c(c1)c(/C=C/c1cc[n+](C)cc1)cn2C`, in test [2], the GFP fluorescence (kMESF), higher = increase is 4.56 kMESF (inactive). Regarding `COc1ccccc1N1C(=O)c2cccc3c(C(=O)O)ccc(c23)C1=O`, in test [2], the GFP fluorescence (kMESF), higher = increase was 3.03 kMESF (inactive).

`CCOC(=O)c1c(C)oc2c1c(C(c1cccnc1)N1CCOCC1)c(O)c1ccccc12` (configuration not stated): the GFP fluorescence (kMESF), higher = increase in test [2] is 4.43 kMESF (inactive).

In the case of `Cc1cccc(C)c1NC(=O)C(Cl)C(=O)c1ccccc1` (configuration not stated), the GFP fluorescence (kMESF), higher = increase in test [2] is 4.47 kMESF (inactive).

Take `Cc1cccc(N=C2NC(=O)/C(=C/C=C/c3ccco3)S2)c1C`: the GFP fluorescence (kMESF), higher = increase in test [2] was 6.73 kMESF (inactive). Same read-out and setting: under `CS(=O)(=O)c1nc(-c2ccccc2)cc(C(F)(F)F)n1` stands 7.24 kMESF (inactive); under `O=[N+]([O-])c1c(Nc2ccccn2)cc(Cl)c2nonc12`, 21.3 kMESF (inactive); under `Cc1cc(NC(=O)c2cccnc2Cl)ccc1NC(=O)c1cc2ccccc2o1`, 3.21 kMESF (inactive). Same read-out and setting: for `COc1cc(/C=C2\CC/C(=C\c3cc(OC)c(O)c(OC)c3)C2=O)cc(OC)c1O` the value was 3.25 kMESF (inactive). For `c1ccc(-c2csc(Nc3cccnc3)n2)nc1`, the GFP fluorescence (kMESF), higher = increase in test [2] was 1.4 kMESF (inactive).

As for `Cc1c(Br)c(=O)oc2c(Br)c(O)c(O)cc12`, the GFP fluorescence (kMESF), higher = increase in test [2] is 2.07 kMESF (inactive). As to `CCCCC(=O)NNC(=S)NC(=O)c1ccc(C)cc1`, the GFP fluorescence (kMESF), higher = increase in test [2] is 4.34 kMESF (inactive). For the molecule `CC(C)CC(=O)NC(=S)Nc1nc(-c2ccccc2)cs1`, in test [2], the GFP fluorescence (kMESF), higher = increase was 2.07 kMESF (inactive). `COc1ccc(C(=O)NNC(=S)NC(=O)/C=C/c2cccs2)cc1`: the GFP fluorescence (kMESF), higher = increase in test [2] was 5.04 kMESF (inactive). Regarding `O=[N+]([O-])c1cnc(Sc2ccncn2)s1`, the GFP fluorescence (kMESF), higher = increase in test [2] was 3.07 kMESF (inactive). On to `Cc1[nH][nH]c(=O)c1C(c1ccc(-c2ccc(Cl)cc2)o1)c1c(C)[nH][nH]c1=O`, for which the GFP fluorescence (kMESF), higher = increase in test [2] was 3.72 kMESF (inactive). The same measure, in the same setting: for `O=c1[nH]c(-c2ccc(Cl)cc2)cs1` the value was 1.62 kMESF (inactive); for `CCN(CC)C(=S)SSC(=S)N(CC)CC`, 5.19 kMESF (inactive). On to `Cc1cc(C2CCCCC2)n(O)c(=O)c1`, for which the GFP fluorescence (kMESF), higher = increase in test [2] is 5.36 kMESF (inactive).

For `O=C(Nc1nnc(-c2ccc(F)cc2)o1)c1cccc([N+](=O)[O-])c1`, the GFP fluorescence (kMESF), higher = increase in test [2] is 2.99 kMESF (inactive).

`O=C(Oc1c(Cl)cc(Cl)c2cccnc12)c1ccco1`: the GFP fluorescence (kMESF), higher = increase in test [2] was 9.81 kMESF (inactive). As for `CCC(=O)Nc1ccc(NC(=O)c2cc3ccccc3o2)cc1`, the GFP fluorescence (kMESF), higher = increase in test [2] is 2.2 kMESF (inactive). Take `CC(c1ccccc1)N1C(=O)/C(=C/c2ccncc2)SC1=S` (configuration not stated): in test [2], the GFP fluorescence (kMESF), higher = increase was 2.87 kMESF (inactive).

The record behind these values is PubChem BioAssay AID2742 (NMMLSC, 2010).
